In US9957266B2, “Imidazo[1,2-a]pyridin-7-amine” (Hoffmann-La Roche Inc., priority 2013, dated 2018):

What was measured:
native tau aggregates = experiment: TAU radioligand in vitro displacement assay ([^3H]T808, autoradiography); type: binding; conditions: human AD brain sections; radioligand [^3H]T808 10 nM; cold compound 10 nM; 50 mM Tris pH 7.4, room temperature, 30 min
Description: FIG. 3 represents data from the TAU radioligand in vitro displacement assay described below. This in vitro binding assay assesses the affinity of compounds for native tau aggregates. The compounds are co-incubated with the well-established tau specific radioligand [^3H]T808 and the compound's displacement potency of [^3H]T808 binding is determined by in vitro autoradiography using human Alzheimer's disease (AD) brain sections.
This in vitro binding assay assesses the affinity of compounds for native tau aggregates. The compounds are co-incubated with the well-established tau specific radioligand [^3H]T808 and the compound's displacement potency of [^3H]T808 binding is determined by in vitro autoradiography using human Alzheimer's disease (AD) brain sections (see FIG. 3).
AD human brains are purchased from Banner Sun Health Research Institute (Sun City, Ariz., USA). Pathological diagnosis of AD is made according to standard NIA-Reagan Institute criteria based on neuropathological data. The radioligand [^3H]T808 was synthesized in-house ([^3H]-2-[4-(2-Fluoro-ethyl)-piperidin-1-yl]-benzo[4,5]imidazo[1,2-a]pyrimidine, radiochemical purity 99.0%). As a reference cold T808 is used (2-[4-(2-Fluoro-ethyl)-piperidin-1-yl]-benzo[4,5]imidazo[1,2-a]pyrimidine). For the autoradiography FujiFilm Imaging Plates (BAS-IP TR 2025) are exposed to the sections and read with a FujiFilm IP reader (BAS-5000).
Ten μm thick human AD brain sections are generated with a cryostat (Leica CM3050) at −17° C. chamber temperature and −15° C. object temperature. Sections are transferred to Histobond+ microscope slides (Marienfeld Laboratory Glasware). After drying for 3 hours at room temperature the sections are stored at −20° C. The sections are incubated with the radioligand (10 nM) and the respective cold compound (at various concentrations) in 50 mM Tris buffer, pH 7.4 at room temperature for 30 min. After washing 3×10 min at 4° C. in 50 mM Tris buffer, pH 7.4 and 3 quick dips in H2O dist. at 4° C. the sections are dried at 4° C. for 3 h. The sections are placed in a FujiFilm Cassette (BAS 2025), exposed with an Imaging Plate for five days and afterwards scanned with a resolution of […].
The signal intensity (Dens-PSL/mm2) in the region of interest (ROI) of the autoradiogram is quantified with the software MCID analysis (version 7.0, Imaging Research Inc.). The specific binding (SB) of [^3H]T808 binding in absence or in presence of a compound is calculated by subtracting the non-specific binding signal in the white matter, thus yielding SB[3H]T808 only and SBcompound. The % displacement by the various compounds is calculated as following: % displacement=100−(SBcompund/SB[3H]T808 only)*100. Validation Data
In each experiment cold T808 is used as a positive internal control. […]

tau aggregates = experiment: Autoradiography of tritiated radioligands on human cortical AD brain sections; type: binding; conditions: Braak V staged AD patient
Description: FIG. 1 is an autoradiogram of [^3H]-2-(4-methoxyphenyl)imidazo[1,2-a]pyridin-7-amine (example 5) incubated with human cortical brain sections obtained from a Braak V staged AD patient. The radioligand concentration was 2.6 nM.
FIG. 2 is an autoradiogram of [^3H]-2-[4-(2-fluoroethoxy)phenyl]imidazo[1,2-a]pyridin-7-amine (example 6) incubated with human cortical brain sections obtained from a Braak V staged AD patient. The radioligand concentration was 2.5 nM.
FIGS. 1 and 2 represent autoradiograms of respectively [[^3H]-2-(4-methoxyphenyl)imidazo[1,2-a]pyridin-7-amine (example 5) and [^3H]-2-[4-(2-fluoroethoxy)phenyl]imidazo[1,2-a]pyridin-7-amine (example 6) incubated with human cortical brain sections obtained from a Braak V staged AD patient. The radioligand concentrations were 2.6 and 2.5 nM, respectively.

tau aggregates, sequence (P10636 623-695 limits assumed): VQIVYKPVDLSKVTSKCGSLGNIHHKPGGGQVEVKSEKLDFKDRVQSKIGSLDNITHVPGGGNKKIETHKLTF

| Molecule | % displacement of [^3H]T808 (10 nM) at 10 nM (native tau aggregates) | also measured |
| --- | --- | --- |
| COc1ccc(-c2cn3ccc(N)cc3n2)cc1 [Example 1, 2-(4-Methoxyphenyl)imidazo[1,2-a]pyridin-7-amine] | 67% | – |
| Nc1ccn2cc(-c3ccc(OCCCF)cc3)nc2c1 [Example 3, 2-[4-(3-Fluoropropoxy)phenyl]imidazo[1,2-a]pyridin-7-amine] | 25% | – |
| Nc1ccn2cc(-c3ccc(OCF)cc3)nc2c1 [Example 2, 2-(4-(Fluoromethoxy)phenyl)imidazo[1,2-a]pyridin-7-amine] | 51% | – |
| [^3H]-2-(4-Methoxyphenyl)imidazo[1,2-a]pyridin-7-amine [Example 5] | – | autoradiogram staining pattern (tau aggregates; radioligand concentration 2.6 nM (FIG. 1)): punctate staining of tau aggregates in a layered distribution pattern and a varying degree of non-specific binding in white matter |
| Nc1ccn2cc(-c3ccc(OCCF)cc3)nc2c1 [Example 4, 2-[4-(2-Fluoroethoxy)phenyl]imidazo[1,2-a]pyridin-7-amine] | 50% | – |
| [^3H]-2-[4-(2-Fluoroethoxy)phenyl]imidazo[1,2-a]pyridin-7-amine [Example 6] | – | autoradiogram staining pattern (tau aggregates; radioligand concentration 2.5 nM (FIG. 2)): punctate staining of tau aggregates in a layered distribution pattern and a varying degree of non-specific binding in white matter |
